Laboratory results from PubChem BioAssay AID1918991 (Molecular Pharmacology Branch, DTP, NCI, 2023).
Blank lines part the entries; values can stand above or below the compound they belong to.

Test system: 186277-243-T-J2-PDC complex spheroid growth
Assay: Anticancer human tumor 186277-243-T-J2-PDC patient-derived colon adenocarcinoma cell line growth inhibition [AhR]
Details: for IC50: curve of first compound; for viability, T/C: stronger effect = lower value
Outline: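 Spheroids combined tumor cells with HUVEC endothelial cells and human MSCs as stroma. AhR antagonists were paired with standard or investigational drugs, each dosed in half-log steps down from near clinical Cmax, or from 10 microM where Cmax was unknown.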

[1] = second compound 0.1 µM, first compound 0.0316 µM
[2] = second compound 0.1 µM, first compound 0.1 µM
[3] = second compound 0.1 µM, first compound 0.316 µM
[4] = second compound 0.1 µM, first compound 1 µM
[5] = second compound 0.1 µM, first compound 3.16 µM
[6] = second compound 0.1 µM, first compound 10 µM
[7] = second compound 0.316 µM, first compound 0.0316 µM
[8] = second compound 0.316 µM, first compound 0.1 µM
[9] = second compound 0.316 µM, first compound 0.316 µM
[10] = second compound 0.316 µM, first compound 1 µM
[11] = second compound 0.316 µM, first compound 3.16 µM
[12] = second compound 0.316 µM, first compound 10 µM
[13] = second compound 1 µM, first compound 0.0316 µM
[14] = second compound 1 µM, first compound 0.1 µM
[15] = second compound 1 µM, first compound 0.316 µM
[16] = second compound 1 µM, first compound 1 µM
[17] = second compound 1 µM, first compound 3.16 µM
[18] = second compound 1 µM, first compound 10 µM
[19] = second compound 3.16 µM, first compound 0.0316 µM
[20] = second compound 3.16 µM, first compound 0.1 µM
[21] = second compound 3.16 µM, first compound 0.316 µM
[22] = second compound 3.16 µM, first compound 1 µM
[23] = second compound 3.16 µM, first compound 3.16 µM
[24] = second compound 3.16 µM, first compound 10 µM
[25] = second compound 10 µM, first compound 0.0316 µM
[26] = second compound 10 µM, first compound 0.1 µM
[27] = second compound 10 µM, first compound 0.316 µM
[28] = second compound 10 µM, first compound 1 µM
[29] = second compound 10 µM, first compound 3.16 µM
[30] = second compound 10 µM, first compound 10 µM
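Note: spheroids exposed to compounds for seven days before the viability read.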
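Throughout, for viability, T/C: luminescent signal used as a stand-in for viable cell amount; 100% = DMSO vehicle control wells.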

IC50 (second compound 0.1 µM): > 10000 nM
IC50 (second compound 0.316 µM): > 10000 nM
IC50 (second compound 1 µM): > 10000 nM
IC50 (second compound 3.16 µM): > 10000 nM
IC50 (second compound 10 µM): > 10000 nM
SMILES: CC1(C)CCC(CN2CCN(c3ccc(C(=O)NS(=O)(=O)c4ccc(NCC5CCOCC5)c([N+](=O)[O-])c4)c(Oc4cnc5[nH]ccc5c4)c3)CC2)=C(c2ccc(Cl)cc2)C1 + Cc1cncc(-c2nc(NCCc3c[nH]c4ccccc34)c3ncn(C(C)C)c3n2)c1
viability, T/C [1]: 88.2%
viability, T/C [2]: 97.7%
viability, T/C [3]: 99.4%
viability, T/C [4]: 91.4%
viability, T/C [5]: 94.3%
viability, T/C [6]: 94.8%
viability, T/C [7]: 109%
viability, T/C [8]: 87.4%
viability, T/C [9]: 102%
viability, T/C [10]: 83.5%
viability, T/C [11]: 100%
viability, T/C [12]: 106%
viability, T/C [13]: 102%
viability, T/C [14]: 85.5%
viability, T/C [15]: 97.4%
viability, T/C [16]: 97.9%
viability, T/C [17]: 103%
viability, T/C [18]: 103%
viability, T/C [19]: 110%
viability, T/C [20]: 108%
viability, T/C [21]: 105%
viability, T/C [22]: 103%
viability, T/C [23]: 109%
viability, T/C [24]: 105%
viability, T/C [25]: 77%
viability, T/C [26]: 81.6%
viability, T/C [27]: 82.8%
viability, T/C [28]: 95.5%
viability, T/C [29]: 88.4%
viability, T/C [30]: 88.5%

IC50 (second compound 0.1 µM): > 3000 nM
IC50 (second compound 0.316 µM): > 3000 nM
IC50 (second compound 1 µM): > 3000 nM
IC50 (second compound 3.16 µM): > 3000 nM
IC50 (second compound 10 µM): 652 nM
SMILES: CCN(c1cc(-c2ccc(CN3CCOCC3)cc2)cc(C(=O)NCc2c(C)cc(C)[nH]c2=O)c1C)C1CCOCC1 + Cc1cncc(-c2nc(NCCc3c[nH]c4ccccc34)c3ncn(C(C)C)c3n2)c1
viability, T/C (second compound 0.1 µM, first compound 0.00949 µM): 106%
viability, T/C (second compound 0.1 µM, first compound 0.03 µM): 89.7%
viability, T/C (second compound 0.1 µM, first compound 0.0949 µM): 108%
viability, T/C (second compound 0.1 µM, first compound 0.3 µM): 102%
viability, T/C (second compound 0.1 µM, first compound 0.949 µM): 94%
viability, T/C (second compound 0.1 µM, first compound 3 µM): 98.5%
viability, T/C (second compound 0.316 µM, first compound 0.00949 µM): 91.8%
viability, T/C (second compound 0.316 µM, first compound 0.03 µM): 110%
viability, T/C (second compound 0.316 µM, first compound 0.0949 µM): 102%
viability, T/C (second compound 0.316 µM, first compound 0.3 µM): 101%
viability, T/C (second compound 0.316 µM, first compound 0.949 µM): 106%
viability, T/C (second compound 0.316 µM, first compound 3 µM): 103%
viability, T/C (second compound 1 µM, first compound 0.00949 µM): 98%
viability, T/C (second compound 1 µM, first compound 0.03 µM): 115%
viability, T/C (second compound 1 µM, first compound 0.0949 µM): 115%
viability, T/C (second compound 1 µM, first compound 0.3 µM): 102%
viability, T/C (second compound 1 µM, first compound 0.949 µM): 111%
viability, T/C (second compound 1 µM, first compound 3 µM): 107%
viability, T/C (second compound 3.16 µM, first compound 0.00949 µM): 102%
viability, T/C (second compound 3.16 µM, first compound 0.03 µM): 103%
viability, T/C (second compound 3.16 µM, first compound 0.0949 µM): 103%
viability, T/C (second compound 3.16 µM, first compound 0.3 µM): 105%
viability, T/C (second compound 3.16 µM, first compound 0.949 µM): 90.7%
viability, T/C (second compound 3.16 µM, first compound 3 µM): 119%
viability, T/C (second compound 10 µM, first compound 0.00949 µM): 84.8%
viability, T/C (second compound 10 µM, first compound 0.03 µM): 98.5%
viability, T/C (second compound 10 µM, first compound 0.0949 µM): 82.9%
viability, T/C (second compound 10 µM, first compound 0.3 µM): 72.1%
viability, T/C (second compound 10 µM, first compound 0.949 µM): 39.6%
viability, T/C (second compound 10 µM, first compound 3 µM): 9.95%

IC50 (second compound 0.1 µM): > 100 nM
IC50 (second compound 0.316 µM): > 100 nM
IC50 (second compound 1 µM): > 100 nM
IC50 (second compound 3.16 µM): > 100 nM
IC50 (second compound 10 µM): > 100 nM
SMILES: Cn1ncnc1C1c2n[nH]c(=O)c3cc(F)cc(c23)NC1c1ccc(F)cc1 (stereo not given) + Cc1cncc(-c2nc(NCCc3c[nH]c4ccccc34)c3ncn(C(C)C)c3n2)c1
viability, T/C (second compound 0.1 µM, first compound 0.000316 µM): 89%
viability, T/C (second compound 0.1 µM, first compound 0.001 µM): 83.9%
viability, T/C (second compound 0.1 µM, first compound 0.00316 µM): 100%
viability, T/C (second compound 0.1 µM, first compound 0.01 µM): 107%
viability, T/C [1]: 115%
viability, T/C [2]: 123%
viability, T/C (second compound 0.316 µM, first compound 0.000316 µM): 109%
viability, T/C (second compound 0.316 µM, first compound 0.001 µM): 103%
viability, T/C (second compound 0.316 µM, first compound 0.00316 µM): 95%
viability, T/C (second compound 0.316 µM, first compound 0.01 µM): 110%
viability, T/C [7]: 121%
viability, T/C [8]: 135%
viability, T/C (second compound 1 µM, first compound 0.000316 µM): 92.5%
viability, T/C (second compound 1 µM, first compound 0.001 µM): 97.1%
viability, T/C (second compound 1 µM, first compound 0.00316 µM): 102%
viability, T/C (second compound 1 µM, first compound 0.01 µM): 107%
viability, T/C [13]: 130%
viability, T/C [14]: 139%
viability, T/C (second compound 3.16 µM, first compound 0.000316 µM): 102%
viability, T/C (second compound 3.16 µM, first compound 0.001 µM): 95.3%
viability, T/C (second compound 3.16 µM, first compound 0.00316 µM): 99.3%
viability, T/C (second compound 3.16 µM, first compound 0.01 µM): 112%
viability, T/C [19]: 127%
viability, T/C [20]: 128%
viability, T/C (second compound 10 µM, first compound 0.000316 µM): 77.4%
viability, T/C (second compound 10 µM, first compound 0.001 µM): 90.7%
viability, T/C (second compound 10 µM, first compound 0.00316 µM): 83.7%
viability, T/C (second compound 10 µM, first compound 0.01 µM): 66.9%
viability, T/C [25]: 69.6%
viability, T/C [26]: 68%

IC50 (second compound 0.1 µM): 693 nM
IC50 (second compound 0.316 µM): 563 nM
IC50 (second compound 1 µM): 492 nM
IC50 (second compound 3.16 µM): 365 nM
IC50 (second compound 10 µM): 41 nM
SMILES: NS(=O)(=O)OCC1CC(n2ccc3c(NC4CCc5ccccc54)ncnc32)CC1O (stereo not given) + Cc1cncc(-c2nc(NCCc3c[nH]c4ccccc34)c3ncn(C(C)C)c3n2)c1
viability, T/C [1]: 114%
viability, T/C [2]: 93.1%
viability, T/C [3]: 80.4%
viability, T/C [4]: 35.6%
viability, T/C [5]: 13.2%
viability, T/C [6]: 3.87%
viability, T/C [7]: 104%
viability, T/C [8]: 96.2%
viability, T/C [9]: 71.4%
viability, T/C [10]: 28.6%
viability, T/C [11]: 9.15%
viability, T/C [12]: 3.24%
viability, T/C [13]: 96%
viability, T/C [14]: 89.8%
viability, T/C [15]: 67.6%
viability, T/C [16]: 22.2%
viability, T/C [17]: 5.08%
viability, T/C [18]: 2.62%
viability, T/C [19]: 91.8%
viability, T/C [20]: 86.8%
viability, T/C [21]: 52.2%
viability, T/C [22]: 21.3%
viability, T/C [23]: 5%
viability, T/C [24]: 2.12%
viability, T/C [25]: 57.8%
viability, T/C [26]: 24.4%
viability, T/C [27]: 9.9%
viability, T/C [28]: 7.65%
viability, T/C [29]: 2.02%
viability, T/C [30]: 1.58%
